Measured values from patent US20080275058A1, “N-Substituted-1H-Quinoline-2,4-Diones, Preparation Method Thereof, And Pharmaceutical Composition Containing The Same” (KOREA RESEARCH INSTITUTE OF CHEMICAL TECHNOLOGY, priority 2005, published 2008).
Read-outs that look alike come from different tables or passages of the source.

Legend:
5-HT2a = target: T1, 5-HT2a (Homo sapiens, UniProt P28223); assay: Radioligand binding, 5-HT2a ([3H]Ketanserin); details: Table 4; [3H]Ketanserin 1 nM; read-out: Binding affinity, IC50 (nM) 5-HT2a
T1 construct: purchased Euroscreen/BioSignal Packard Inc
T1 sequence (P28223 whole entry): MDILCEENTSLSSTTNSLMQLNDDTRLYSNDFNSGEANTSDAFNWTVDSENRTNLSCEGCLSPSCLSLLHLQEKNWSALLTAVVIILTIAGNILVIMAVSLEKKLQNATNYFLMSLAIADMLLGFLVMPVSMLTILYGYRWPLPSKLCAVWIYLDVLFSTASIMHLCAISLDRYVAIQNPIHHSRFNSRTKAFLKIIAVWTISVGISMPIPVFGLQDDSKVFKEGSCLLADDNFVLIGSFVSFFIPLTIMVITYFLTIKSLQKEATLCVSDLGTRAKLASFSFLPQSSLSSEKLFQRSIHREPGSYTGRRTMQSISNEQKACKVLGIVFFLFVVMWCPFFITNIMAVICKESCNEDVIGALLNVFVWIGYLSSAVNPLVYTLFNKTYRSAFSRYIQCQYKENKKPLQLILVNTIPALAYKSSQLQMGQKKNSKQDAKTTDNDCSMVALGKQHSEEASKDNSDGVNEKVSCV

hD3 = target: T2, hD3 (Homo sapiens, UniProt P35462); assay: Radioligand binding, dopamine D3 ([3H]spiperone); details: Table 4; [3H]spiperone 1 nM; read-out: Binding affinity, IC50 (nM) D3
T2 construct: purchased BioSignal Packard Inc., Montreal, Canada
T2 sequence (P35462 whole entry): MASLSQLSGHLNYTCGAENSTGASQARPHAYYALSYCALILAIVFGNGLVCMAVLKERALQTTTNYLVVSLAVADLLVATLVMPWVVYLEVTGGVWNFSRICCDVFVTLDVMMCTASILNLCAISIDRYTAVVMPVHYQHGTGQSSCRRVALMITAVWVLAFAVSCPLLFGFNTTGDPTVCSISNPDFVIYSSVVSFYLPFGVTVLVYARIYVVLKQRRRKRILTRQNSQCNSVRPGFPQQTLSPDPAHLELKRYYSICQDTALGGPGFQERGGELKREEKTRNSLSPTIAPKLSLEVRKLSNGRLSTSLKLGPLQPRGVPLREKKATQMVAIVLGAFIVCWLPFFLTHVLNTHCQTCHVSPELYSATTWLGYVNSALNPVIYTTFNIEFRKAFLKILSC
Method in brief: (§1)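 Membrane competition binding with [3H]spiperone (1 nM) for hD2L and hD3, or [3H]YM-09151-2 (0.06 nM) for hD4.2, each in receptor-specific Tris-HCl pH 7.4 buffer containing Mg2+/EDTA (D3 and D4 also with K+, Ca2+; D3 with 120 mM NaCl). Compounds were tested at 7-8 concentrations in duplicate, and IC50 was derived by nonlinear regression across three assays.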

5-HT2c = target: T3, 5-HT2c (Homo sapiens, UniProt P28335); assay: Radioligand binding, 5-HT2c ([3H]Mesulergine); details: Table 4; [3H]Mesulergine 1 nM; read-out: Binding affinity, IC50 (nM) 5-HT2c
T3 construct: purchased Euroscreen/BioSignal Packard Inc
T3 sequence (P28335 33-458): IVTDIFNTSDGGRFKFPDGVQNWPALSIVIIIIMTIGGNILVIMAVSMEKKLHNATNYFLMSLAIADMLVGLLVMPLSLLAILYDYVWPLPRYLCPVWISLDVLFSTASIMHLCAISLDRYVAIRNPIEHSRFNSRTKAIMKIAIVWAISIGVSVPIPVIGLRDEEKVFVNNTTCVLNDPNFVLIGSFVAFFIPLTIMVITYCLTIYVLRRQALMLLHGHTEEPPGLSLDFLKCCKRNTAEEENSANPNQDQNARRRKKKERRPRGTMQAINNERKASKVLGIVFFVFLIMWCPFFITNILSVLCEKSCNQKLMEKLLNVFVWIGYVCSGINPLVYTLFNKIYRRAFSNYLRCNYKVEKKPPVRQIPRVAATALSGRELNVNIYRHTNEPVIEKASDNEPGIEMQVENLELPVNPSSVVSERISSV

[1] = target: T4, Human serotonin 5-HT6 receptor (Homo sapiens, UniProt P50406); assay: [3H]LSD binding assay on cloned 5-HT6 receptor membranes
T4 construct: made in house; host or cells: insect Sf21 cells (baculovirus vector BacPAK8)
T4 sequence (P50406 whole entry): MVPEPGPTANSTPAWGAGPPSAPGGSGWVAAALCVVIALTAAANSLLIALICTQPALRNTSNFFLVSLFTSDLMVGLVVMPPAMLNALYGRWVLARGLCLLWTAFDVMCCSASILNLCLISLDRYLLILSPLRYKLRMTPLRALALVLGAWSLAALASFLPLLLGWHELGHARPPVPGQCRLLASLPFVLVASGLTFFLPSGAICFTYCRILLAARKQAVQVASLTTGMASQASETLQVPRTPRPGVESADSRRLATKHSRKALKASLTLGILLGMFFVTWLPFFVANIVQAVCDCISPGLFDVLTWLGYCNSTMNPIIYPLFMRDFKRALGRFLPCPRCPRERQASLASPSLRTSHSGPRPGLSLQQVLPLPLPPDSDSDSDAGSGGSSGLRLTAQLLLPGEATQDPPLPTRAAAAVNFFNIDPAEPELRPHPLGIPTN

D1 = D1 (Homo sapiens, UniProt P21728); assay: Radioligand binding, dopamine D1; details: Table 4; read-out: Binding affinity, IC50 (nM) D1
Chain of D1 (P21728 whole entry): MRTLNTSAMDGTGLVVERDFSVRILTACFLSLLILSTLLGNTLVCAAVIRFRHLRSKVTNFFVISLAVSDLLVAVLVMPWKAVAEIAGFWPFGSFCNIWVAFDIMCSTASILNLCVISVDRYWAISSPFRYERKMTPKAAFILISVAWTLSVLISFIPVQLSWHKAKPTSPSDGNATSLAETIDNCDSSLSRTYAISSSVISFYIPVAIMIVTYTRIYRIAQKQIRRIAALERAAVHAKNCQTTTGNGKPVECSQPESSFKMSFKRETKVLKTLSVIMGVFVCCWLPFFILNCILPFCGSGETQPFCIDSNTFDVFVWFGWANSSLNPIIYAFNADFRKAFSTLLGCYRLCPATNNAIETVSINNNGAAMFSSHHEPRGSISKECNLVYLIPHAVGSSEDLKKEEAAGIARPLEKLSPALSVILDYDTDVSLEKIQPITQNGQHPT

hD2L = target: T5, hD2L (Homo sapiens, UniProt P14416); assay: Radioligand binding, dopamine D2 ([3H]spiperone); details: Table 4; [3H]spiperone 1 nM; read-out: Binding affinity, IC50 (nM) D2
T5 construct: purchased BioSignal Packard Inc., Montreal, Canada
T5 sequence (P14416 whole entry): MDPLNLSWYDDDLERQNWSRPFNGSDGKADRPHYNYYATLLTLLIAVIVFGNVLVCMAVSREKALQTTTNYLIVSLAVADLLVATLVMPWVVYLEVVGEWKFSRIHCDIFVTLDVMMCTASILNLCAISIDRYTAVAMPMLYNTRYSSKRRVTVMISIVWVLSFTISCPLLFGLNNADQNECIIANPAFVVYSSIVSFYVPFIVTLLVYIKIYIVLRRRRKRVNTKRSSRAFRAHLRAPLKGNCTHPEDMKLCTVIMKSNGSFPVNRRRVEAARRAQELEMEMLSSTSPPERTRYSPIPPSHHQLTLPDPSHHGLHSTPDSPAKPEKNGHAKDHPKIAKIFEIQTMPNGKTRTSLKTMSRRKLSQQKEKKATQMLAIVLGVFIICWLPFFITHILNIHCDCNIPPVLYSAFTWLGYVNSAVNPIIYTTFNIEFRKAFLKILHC
Method in brief: as §1

5-HT7 = target: T6, 5-HT7 (Homo sapiens, UniProt P34969); assay: Radioligand binding, 5-HT7 ([3H]LSD); details: Table 4; [3H]LSD 3 nM; read-out: Binding affinity, IC50 (nM) 5-HT7
T6 construct: purchased Euroscreen/BioSignal Packard Inc
T6 sequence (P34969 whole entry): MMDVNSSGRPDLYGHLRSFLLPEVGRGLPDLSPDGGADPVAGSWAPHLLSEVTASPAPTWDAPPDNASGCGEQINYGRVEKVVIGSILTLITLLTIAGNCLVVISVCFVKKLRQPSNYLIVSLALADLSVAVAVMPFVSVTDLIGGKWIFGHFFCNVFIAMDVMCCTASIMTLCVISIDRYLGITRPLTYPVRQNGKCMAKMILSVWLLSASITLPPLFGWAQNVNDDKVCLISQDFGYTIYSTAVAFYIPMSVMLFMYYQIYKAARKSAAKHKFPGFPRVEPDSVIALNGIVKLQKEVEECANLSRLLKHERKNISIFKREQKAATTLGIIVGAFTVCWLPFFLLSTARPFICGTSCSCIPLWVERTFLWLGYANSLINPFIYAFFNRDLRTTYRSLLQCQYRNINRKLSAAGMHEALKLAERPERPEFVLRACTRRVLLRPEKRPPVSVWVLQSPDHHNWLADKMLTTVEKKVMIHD

hD4.2 receptor = target: T7, hD4.2 receptor (Homo sapiens, UniProt P21917, DEL265-296); assay: Radioligand binding, dopamine D4 ([3H]YM-09151-2); details: Table 4; [3H]YM-09151-2 0.06 nM; read-out: Binding affinity, IC50 (nM) D4
T7 construct: purchased BioSignal Packard Inc., Montreal, Canada
T7 sequence (P21917 with tags, fused parts or gaps DEL265-296): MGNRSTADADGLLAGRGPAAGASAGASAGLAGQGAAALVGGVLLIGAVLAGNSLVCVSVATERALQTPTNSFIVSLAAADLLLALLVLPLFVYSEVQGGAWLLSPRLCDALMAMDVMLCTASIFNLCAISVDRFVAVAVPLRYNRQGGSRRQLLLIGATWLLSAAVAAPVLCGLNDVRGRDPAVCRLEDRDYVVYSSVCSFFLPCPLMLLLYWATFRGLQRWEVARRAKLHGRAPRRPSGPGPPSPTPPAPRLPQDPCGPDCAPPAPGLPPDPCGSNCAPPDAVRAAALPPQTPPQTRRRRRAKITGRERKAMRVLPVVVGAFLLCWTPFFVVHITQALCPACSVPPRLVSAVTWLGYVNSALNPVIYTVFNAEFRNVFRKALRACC
Method in brief: as §1

5-HT1a = target: T8, 5-HT1a (Homo sapiens, UniProt P08908); assay: Radioligand binding, 5-HT1a ([3H]8-OH-DPAT); details: Table 4; [3H]8-OH-DPAT 0.5 nM; read-out: Binding affinity, IC50 (nM) 5-HT1a
T8 construct: purchased Euroscreen/BioSignal Packard Inc
T8 sequence (P08908 1-422): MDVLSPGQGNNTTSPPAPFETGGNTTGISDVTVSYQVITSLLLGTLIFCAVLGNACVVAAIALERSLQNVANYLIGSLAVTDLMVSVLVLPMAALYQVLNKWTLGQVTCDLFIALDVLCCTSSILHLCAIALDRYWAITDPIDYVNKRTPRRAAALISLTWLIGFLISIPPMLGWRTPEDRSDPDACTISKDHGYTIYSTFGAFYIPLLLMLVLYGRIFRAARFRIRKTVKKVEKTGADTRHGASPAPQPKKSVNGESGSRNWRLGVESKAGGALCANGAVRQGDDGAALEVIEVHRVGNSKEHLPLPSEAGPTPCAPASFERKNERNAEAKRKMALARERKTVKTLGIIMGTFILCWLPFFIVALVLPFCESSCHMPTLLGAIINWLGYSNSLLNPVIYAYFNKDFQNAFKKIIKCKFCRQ
Method in brief: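 Displacement of the radiolabel is read on purchased receptor membranes. Conditions follow the vendor's standard method.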

[2] = Table 2, 1.87 nM [3H]LSD, 37 C, 60 min, read-out: IC50 (nM), binding affinity to the 5-HT6 receptor
[3] = Table 4, read-out: Binding affinity, IC50 (nM) 5-HT6

| Compound | IC50 (5-HT2a) | IC50 (hD3) | IC50 (5-HT2c) | IC50 [1, 2] | IC50 [1, 3] | IC50 (D1) | IC50 (hD2L) | IC50 (5-HT7) | IC50 (hD4.2 receptor) | melting point | IC50 (5-HT1a) | binding affinity at 5-HT6 receptor labeled by [3H]LSD, in words ([1]; comment on Table 2) |
| --- | --- | --- | --- | --- | --- | --- | --- | --- | --- | --- | --- | --- |
| COc1ccc(CN2C(=O)C(C)(c3ccc(OC)cc3)C(=O)c3c(N4CCNCC4)cc(Cl)cc32)cc1 (stereo not shown) [Example 31, 7-Chloro-1-(4-methoxy-benzyl)-3-(4-methoxy-phenyl)-3-methyl-5-piperazin-1-yl-1H-quinoline-2,4-dione] | 8340 nM | 8950 nM | 7950 nM | 26.5 nM | 21.3 nM | 7550 nM | 6430 nM | 8440 nM | 8710 nM | 182 to 183 °C | 6950 nM | – |
| CC1(c2ccc([N+](=O)[O-])cc2)C(=O)c2c(N3CCNCC3)cc(Cl)cc2N(Cc2ccccc2)C1=O (stereo not shown) [Example 15, 1-Benzyl-7-chloro-3-methyl-3-(4-nitro-phenyl)-5-piperazin-1-yl-1H-quinoline-2,4-dione] | 8120 nM | 9740 nM | 9950 nM | 12.1 nM | 15.2 nM | 5810 nM | 6660 nM | 9510 nM | 9460 nM | 145 to 146 °C | 6350 nM | – |
| CC1(c2ccc(O)cc2)C(=O)c2c(N3CCNCC3)cc(Cl)cc2N(Cc2ccc3ccccc3n2)C1=O (stereo not shown) [Example 45, 7-Chloro-3-(4-hydroxy-phenyl)-3-methyl-5-piperazin-1-yl-1-quinolin-2-ylmethyl-1H-quinoline-2,4-dione] | > 10000 nM | 9160 nM | > 1000 nM | 11.4 nM | 16.4 nM | 8410 nM | 7680 nM | 9450 nM | 8510 nM | 278 to 279 °C | > 10000 nM | – |
| COc1ccc(C2(C)C(=O)c3c(N4CCNCC4)cc(Cl)cc3N(Cc3ccc4ccccc4n3)C2=O)cc1 (stereo not shown) [Example 44, 7-Chloro-3-(4-methoxy-phenyl)-3-methyl-5-piperazin-1-yl-1-quinolin-2-ylmethyl-1H-quinoline-2,4-dione] | 6100 nM | 9840 nM | 7690 nM | 6.9 nM | 19 nM | 7650 nM | > 1000 nM | 7650 nM | 9270 nM | 200 to 201 °C | 7530 nM | – |
| COc1ccc(C2(C)C(=O)c3c(N4CCNCC4)cc(Cl)cc3N(Cc3ccccc3OC)C2=O)cc1 (stereo not shown) [Example 29, 7-Chloro-1-(2-methoxy-benzyl)-3-(4-methoxy-phenyl)-3-methyl-5-piperazin-1-yl-1H-quinoline-2,4-dione] | 9150 nM | 9410 nM | 8050 nM | 34.2 nM | 15 nM | 7810 nM | 9170 nM | 7500 nM | 9000 nM | 153 to 155 °C | 7580 nM | – |
| CC1(c2ccc(Br)cc2)C(=O)c2c(N3CCNCC3)cc(Cl)cc2N(Cc2ccccc2)C1=O (stereo not shown) [Example 20, 1-Benzyl-3-(4-bromo-phenyl)-7-chloro-3-methyl-5-piperazin-1-yl-1H-quinoline-2,4-dione] | 5700 nM | 9380 nM | > 10000 nM | 1.9 nM | 18.2 nM | 8540 nM | 8250 nM | 6840 nM | 8990 nM | 116 to 117 °C | 6360 nM | significant affinities |
| COc1ccc(C2(C)C(=O)c3c(N4CCNCC4)cc(Cl)cc3N(Cc3nc4ccccc4[nH]3)C2=O)cc1 (stereo not shown) [Example 43, 1-(1H-Benzoimidazol-2-ylmethyl)-7-chloro-3-(4-methoxy-phenyl)-3-methyl-5-piperazin-1-yl-1H-quinoline-2,4-dione] | 5800 nM | 9440 nM | 7890 nM | 137 nM | 19.3 nM | 6350 nM | 9010 nM | 9520 nM | 9470 nM | 178 to 179 °C | 8020 nM | – |
| COc1ccc(C2(C)C(=O)c3c(N4CCNCC4)cc(Cl)cc3N(Cc3cccnc3)C2=O)cc1 (stereo not shown) [Example 37, 7-Chloro-3-(4-methoxy-phenyl)-3-methyl-5-piperazin-1-yl-1-pyridin-3-ylmethyl-1H-quinoline-2,4-dione] | 6020 nM | > 10000 nM | 8050 nM | 21.4 nM | 19.8 nM | 7680 nM | 8050 nM | 5990 nM | 9380 nM | 160 to 162 °C | 9060 nM | – |
| COc1ccc(C2(C)C(=O)c3c(N4CCNCC4)cc(Cl)cc3N(Cc3cccc([N+](=O)[O-])c3)C2=O)cc1 (stereo not shown) [Example 23, 7-Chloro-3-(4-methoxy-phenyl)-3-methyl-1-(3-nitro-benzyl)-5-piperazin-1-yl-1H quinoline-2,4-dione] | 6480 nM | 9650 nM | 8400 nM | 2.7 nM | 16.7 nM | 7640 nM | 6930 nM | 8450 nM | 9090 nM | 153 to 154 °C | 9010 nM | – |
